Reference: patent US20100204295A1, “TREATMENT OF ALLERGIC DISEASE WITH IMMUNOMODULATOR COMPOUNDS” (SCICLONE PHARMACEUTICALS, INC., priority 2007, published 2010)

How the values were obtained:
[1] = test system: infiltration of the lung tissue; test: Morphometric peribronchial and perivascular infiltration of lung tissue, ovalbumin asthma model; assay type: in vivo, mice of the Balb/C line; conditions: age group not given
From the text: Female, non-pathogenic mice of the Balb/C line (“Pushchtino” laboratory animal breeders) were kept under conditions of an SPF-vivarium at a constant temperature, 12-hour day/night cycle, and received sterile feed and water ad libitum. In two series of experiments, mice from 6-8 weeks and 18-20 weeks of age were used at the beginning of the experiment, respectively. The animals were immunized twice at 5-day intervals with an ovalbumin solution (Sigma) in an adjuvant based on ammonium sulfate at a dosage of 8 μg per mouse. SCV-07 was administered intra-abdominally in a volume of 200 μL at a dosage of 0.1 or 1.0 μg/kg in PBS once a day from 6 through 11 days after the first immunization. The control group received physiological saline on the same days. Each group comprised 6 to 10 animals. On the 12th, 16th and 20th days after the first immunization, the animals were then placed in a hermetic box, in which an aerosol of 1% ovalbumin solution (OvA) in PBS was generated with an ultrasonic nebulizer LD-207U (Little Doctor) for 1 minute with continuous mixing of air. The duration of exposure of the animals to the aerosol was 15 minutes. Analysis of the severity of experimental allergic asthma was carried out 24 hours after the last aerosol exposure. […] Sections of […] were prepared. The sections were stained with hematoxylin-eosin to evaluate the intensity of cell infiltration and Schiff-iodic acid to count the number of goblet cells. Quantitative evaluation of the peribronchial and perivascular infiltration was accomplished morphometrically with the Scion Image program package. Three bronchi and three vessels were analyzed on sections of the lungs from each animal. The area of the infiltration was calculated as the difference between the area of the tissue containing bronchi or vessels and the infiltration surrounding it, and the area of the vessel or bronchus itself. The indices of infiltration were calculated as the ratio of the area of the infiltration to the area of the vessel or bronchus.

anti-OvA IgE = test: Titer of anti-OvA IgE in serum and BAL by solid phase IFA, ovalbumin asthma model; assay type: in vivo, mice of the Balb/C line; conditions: for Titer IgE BAL, dilution 1:8, % of average of the control group / Titer IgE of serum, dilution 1:640, % of average of the control group: animals 6 to 8 weeks; for Titer IgE BAL, dilution 1:32, % of average of the control group / Titer IgE of serum, dilution 1:400, % of average of the control group: animals 18 to 20 weeks
From the text: Female, non-pathogenic mice of the Balb/C line (“Pushchtino” laboratory animal breeders) were kept under conditions of an SPF-vivarium at a constant temperature, 12-hour day/night cycle, and received sterile feed and water ad libitum. In two series of experiments, mice from 6-8 weeks and 18-20 weeks of age were used at the beginning of the experiment, respectively.
The animals were immunized twice at 5-day intervals with an ovalbumin solution (Sigma) in an adjuvant based on ammonium sulfate at a dosage of 8 μg per mouse. SCV-07 was administered intra-abdominally in a volume of 200 μL at a dosage of 0.1 or 1.0 μg/kg in PBS once a day from 6 through 11 days after the first immunization. The control group received physiological saline on the same days. Each group comprised 6 to 10 animals. On the 12th, 16th and 20th days after the first immunization, the animals were then placed in a hermetic box, in which an aerosol of 1% ovalbumin solution (OvA) in PBS was generated with an ultrasonic nebulizer LD-207U (Little Doctor) for 1 minute with continuous mixing of air. The duration of exposure of the animals to the aerosol was 15 minutes. Analysis of the severity of experimental allergic asthma was carried out 24 hours after the last aerosol exposure.
The peripheral blood was collected from the retro-orbital sinus. The titer of anti-OvA IgE in the serum and bronchoalveolar lavage was determined with solid phase IFA according to the following scheme. Rat antibodies to murine IgE labeled with biotin (Caltag) were introduced to a 96-well plate for IFA ((Corning Costar) in the dilution recommended by the manufacturer (100 μL/well), incubated for an hour at room temperature and washed. Serum samples or BAL were then introduced in successive dilutions and incubated at room temperature for an hour and washed. OvA was then added, labeled with horseradish peroxidase, incubated on a shaker for an hour at room temperature, washed and the substrate for peroxidase introduced (OPD, Sigma) and incubated for 15 minutes. The reaction was stopped by adding 1 M H2SO4 and the plates were analyzed on a Victor2 spectrophotometer (Wallac) at a wavelength of 450 nm. For quantitative comparison of the titers of the antigen-specific IgE after subtracting the background, we calculated the average optical density in each dilution for samples of the animal control group, and expressed the optical densities in the samples from all animals in the experiment in corresponding dilution as the percentages of the values obtained.

N[C@H](CCC(=O)N[C@@H](Cc1c[nH]c2ccccc12)C(=O)O)C(=O)O [SCV-07, γ-D-glutamyl-L-tryptophan]
Index of peribronchial infiltration, conventional units ([1]; 0.1 μg/kg): 0.39 ± 0.19 conventional units
Index of perivascular infiltration, conventional units ([1]; 0.1 μg/kg): 1.67 ± 1.08 conventional units
Index of peribronchial infiltration, conventional units ([1]; 1 μg/kg): 0.35 ± 0.14 conventional units
Index of perivascular infiltration, conventional units ([1]; 1 μg/kg): 1.48 ± 1.02 conventional units
Titer IgE BAL, dilution 1:8, % of average of the control group (anti-OvA IgE; 0.1 μg/kg): 59 ± 33 % of average of the control group
Titer IgE of serum, dilution 1:640, % of average of the control group (anti-OvA IgE; 0.1 μg/kg): 86 ± 42 % of average of the control group
Titer IgE BAL, dilution 1:8, % of average of the control group (anti-OvA IgE; 1 μg/kg): 46 ± 24 % of average of the control group
Titer IgE of serum, dilution 1:640, % of average of the control group (anti-OvA IgE; 1 μg/kg): 65 ± 26 % of average of the control group
Titer IgE BAL, dilution 1:32, % of average of the control group (anti-OvA IgE; 0.1 μg/kg): 85 ± 70 % of average of the control group
Titer IgE of serum, dilution 1:400, % of average of the control group (anti-OvA IgE; 0.1 μg/kg): 92 ± 44 % of average of the control group
Titer IgE BAL, dilution 1:32, % of average of the control group (anti-OvA IgE; 1 μg/kg): 101 ± 51 % of average of the control group
Titer IgE of serum, dilution 1:400, % of average of the control group (anti-OvA IgE; 1 μg/kg): 79 ± 46 % of average of the control group
